Results published in ChEMBL document CHEMBL4330185, “Computer-Assisted Discovery and Structural Optimization of a Novel Retinoid X Receptor Agonist Chemotype” (ACS Med Chem Lett, 2019).
The source made the active and inactive calls. The rule behind the calls is not given here.

What was measured:
Type in all cases: cell-based
[1] = molecular target: T1, Retinoic acid receptor RXR-alpha (Homo sapiens, UniProt P19793); test: Agonist activity at human Gal4-DBD fused RXRalpha LBD expressed in HEK293T cells after 12 to 14 hrs by luciferase reporter gene assay
T1 sequence (P19793 whole entry): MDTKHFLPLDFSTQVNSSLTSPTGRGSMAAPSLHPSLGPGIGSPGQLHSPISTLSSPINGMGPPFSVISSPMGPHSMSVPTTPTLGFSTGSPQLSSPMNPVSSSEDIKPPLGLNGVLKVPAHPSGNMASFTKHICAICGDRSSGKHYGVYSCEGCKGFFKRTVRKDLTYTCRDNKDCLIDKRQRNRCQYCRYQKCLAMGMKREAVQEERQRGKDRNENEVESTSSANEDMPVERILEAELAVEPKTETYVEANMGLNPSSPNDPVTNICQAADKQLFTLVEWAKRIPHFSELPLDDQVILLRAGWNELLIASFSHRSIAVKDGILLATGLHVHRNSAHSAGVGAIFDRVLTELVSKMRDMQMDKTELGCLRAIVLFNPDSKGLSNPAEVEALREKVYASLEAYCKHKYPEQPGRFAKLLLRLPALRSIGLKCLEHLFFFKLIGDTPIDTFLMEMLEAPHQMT

[2] = molecular target: T2, Retinoic acid receptor RXR-beta (Homo sapiens, UniProt P28702); test: Agonist activity at human Gal4-DBD fused RXRbeta LBD expressed in HEK293T cells after 12 to 14 hrs by luciferase reporter gene assay
T2 sequence (P28702 whole entry): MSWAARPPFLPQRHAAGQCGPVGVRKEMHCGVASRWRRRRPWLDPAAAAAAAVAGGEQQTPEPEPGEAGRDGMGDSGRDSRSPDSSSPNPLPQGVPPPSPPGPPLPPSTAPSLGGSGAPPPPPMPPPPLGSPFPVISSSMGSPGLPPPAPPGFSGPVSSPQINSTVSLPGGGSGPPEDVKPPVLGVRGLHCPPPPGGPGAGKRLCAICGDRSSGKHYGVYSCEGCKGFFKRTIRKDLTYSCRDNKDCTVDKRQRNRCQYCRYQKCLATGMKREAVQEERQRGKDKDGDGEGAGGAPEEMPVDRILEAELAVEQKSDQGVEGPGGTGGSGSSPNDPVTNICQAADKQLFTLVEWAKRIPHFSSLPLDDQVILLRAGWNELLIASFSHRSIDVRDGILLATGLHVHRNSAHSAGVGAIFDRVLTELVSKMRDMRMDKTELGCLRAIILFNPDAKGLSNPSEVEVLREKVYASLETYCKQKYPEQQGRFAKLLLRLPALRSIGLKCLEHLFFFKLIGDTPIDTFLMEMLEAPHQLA

[3] = molecular target: T3, Retinoic acid receptor RXR-gamma (Homo sapiens, UniProt P48443); test: Agonist activity at human Gal4-DBD fused RXRgamma LBD expressed in HEK293T cells after 12 to 14 hrs by luciferase reporter gene assay
T3 sequence (P48443 whole entry): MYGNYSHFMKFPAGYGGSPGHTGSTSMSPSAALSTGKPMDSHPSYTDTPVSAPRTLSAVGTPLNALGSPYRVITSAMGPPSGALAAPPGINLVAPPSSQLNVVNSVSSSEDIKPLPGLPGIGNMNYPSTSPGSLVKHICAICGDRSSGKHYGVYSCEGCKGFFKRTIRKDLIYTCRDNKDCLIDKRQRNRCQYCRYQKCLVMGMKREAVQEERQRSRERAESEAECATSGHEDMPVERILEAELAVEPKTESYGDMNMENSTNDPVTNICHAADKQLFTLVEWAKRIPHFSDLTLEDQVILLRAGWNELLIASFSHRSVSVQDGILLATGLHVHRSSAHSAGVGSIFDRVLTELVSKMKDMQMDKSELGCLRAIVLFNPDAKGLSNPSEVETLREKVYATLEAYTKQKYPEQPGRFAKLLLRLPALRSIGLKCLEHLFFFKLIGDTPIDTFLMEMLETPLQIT

[4] = molecular target: T4, Retinoic acid receptor RXR-alpha (Homo sapiens) (UniProt P19793); test: Agonist activity at human Gal4-DBD fused RXRalpha LBD expressed in HEK293T cells after 12 to 14 hrs by luciferase reporter gene assay relative to bexarotene
T4 sequence (whole entry): T1 sequence (P19793 whole entry)

[5] = molecular target: T5, Retinoic acid receptor RXR-beta (Homo sapiens) (UniProt P28702); test: Agonist activity at human Gal4-DBD fused RXRbeta LBD expressed in HEK293T cells after 12 to 14 hrs by luciferase reporter gene assay relative to bexarotene
T5 sequence (whole entry): T2 sequence (P28702 whole entry)

[6] = molecular target: T6, Retinoic acid receptor RXR-gamma (Homo sapiens) (UniProt P48443); test: Agonist activity at human Gal4-DBD fused RXRgamma LBD expressed in HEK293T cells after 12 to 14 hrs by luciferase reporter gene assay relative to bexarotene
T6 sequence (whole entry): T3 sequence (P48443 whole entry)

[7] = molecular target: T6, Retinoic acid receptor RXR-gamma (Homo sapiens); test: Agonist activity at human Gal4-DBD fused RXRgamma LBD expressed in HEK293T cells at 30 uM after 12 to 14 hrs by luciferase reporter gene assay
[8] = molecular target: T4, Retinoic acid receptor RXR-alpha (Homo sapiens); test: Agonist activity at human Gal4-DBD fused RXRalpha LBD expressed in HEK293T cells at 10 uM after 12 to 14 hrs by luciferase reporter gene assay

Structure (SMILES) | EC50 ([1]; read-out: EC50) [µM] | EC50 ([2]; read-out: EC50) [µM] | EC50 ([3]; read-out: EC50) [µM] | Emax [4] [%] | Emax [5] [%] | Emax [6] [%] | Activity [7] | EC50 [1] | EC50 [2] | EC50 [3] | Activity [8]
Cc1ccccc1OCc1ccc(C(=O)O)cc1 | 5 | 8.6 | 19 | 24 | 27 | 19 |  |  |  |  | 
O=C(O)c1ccc(COc2cc3c(cc2-c2ccccc2)CCC3)cc1 | > 30 | > 30 | > 30 |  |  |  |  |  |  |  | 
O=C(O)c1ccc(COc2ccccc2)cc1 | > 30 | > 30 | > 30 |  |  |  |  |  |  |  | 
O=C(O)c1ccc(COc2ccccc2C(F)(F)F)cc1 | 1.1 | 2.1 | 10 | 22 | 22 | 52 |  |  |  |  | 
O=C(O)CCc1ccc(COc2ccc3c(c2)CCC3)cc1 | 6.7 | 10 | 21 | 28 | 29 | 19 |  |  |  |  | 
CC(C)(C)c1ccccc1OCc1ccc(C(=O)O)cc1 | 0.16 | 0.37 | 1.1 | 11 | 12 | 21 |  |  |  |  | 
CC(C)c1ccc(OCc2ccc(C(=O)O)cc2)cc1 | 16 | 16 |  | 11 | 9.5 |  | inactive |  |  |  | 
O=C(O)c1ccccc1COc1ccc2c(c1)CCC2 | > 30 | > 30 | > 30 |  |  |  |  |  |  |  | 
CC(C)(C)c1ccc(OCc2ccc(C(=O)O)cc2)c(Cl)c1 | 4.2 | 5.3 | 4 | 37 | 36 | 14 |  |  |  |  | 
O=C(O)c1ccc(COc2ccccc2OC(F)(F)F)cc1 | 1.1 | 1.9 | 4.2 | 26 | 18 | 25 |  |  |  |  | 
O=C(O)c1ccc(OCc2ccc3c(c2)CCC3)cc1 | > 30 | 21 | > 30 |  | 25 |  |  |  |  |  | 
O=C(O)c1ccc(COc2ccc(Cl)cc2)cc1 | > 30 | > 30 | > 30 |  |  |  |  |  |  |  | 
O=C(O)c1ccc(COc2ccc(C(F)(F)F)cc2C(F)(F)F)cc1 | 6 | 4.3 | 11 | 118 | 66 | 49 |  |  |  |  | 
O=C(O)c1ccc(CNc2ccc3c(c2)CCC3)cc1 | > 30 | > 30 | > 30 |  |  |  |  |  |  |  | 
O=C(O)Cc1ccc(COc2ccc3c(c2)CCC3)cc1 | 13 | 18 | 22 | 47 | 9.9 | 8.8 |  |  |  |  | 
O=C(O)c1ccc(OCc2cccc(Cl)c2)cc1 | 27 | 28 | 29 | 27 | 24 | 29 |  |  |  |  | 
CN(Cc1ccc(C(=O)O)cc1)c1ccc2c(c1)CCC2 | 10 | 9.9 | 30 | 22 | 15 | 8.5 |  |  |  |  | 
O=C(O)c1ccc(COc2ccc(Br)cc2)cc1 | 40 | 48 | > 30 | 21 | 36 |  |  |  |  |  | 
CC(C)(C)c1ccc(OCc2ccc(C(=O)O)cc2)c(C(C)(C)C)c1 |  |  |  |  |  |  |  | Nd(Toxic) | Nd(Toxic) | Nd(Toxic) | 
Cc1ccc(OCc2ccc(C(=O)O)cc2)c(-c2ccccc2)c1 | > 30 | > 30 |  |  |  |  |  |  |  | Nd(Toxic) | 
CC(C)(C)c1ccc(OCc2ccc(C(=O)O)cc2)c(-c2ccccc2)c1 | > 30 | > 30 | > 30 |  |  |  |  |  |  |  | 
O=C(O)c1ccc(COc2cccc(Cl)c2)cc1 | 17 | 20 | 44 | 54 | 26 | 9.3 |  |  |  |  | 
O=C(O)c1ccc(OCc2ccccc2-c2ccccc2)cc1 | > 30 | > 30 |  |  |  |  |  |  |  | Nd(Toxic) | 
O=C(O)c1ccc(COc2ccc(I)cc2)cc1 | 24 | 29 | > 30 | 19 | 25 |  |  |  |  |  | 
COc1ccccc1OCc1ccc(C(=O)O)cc1 | 29 | > 30 | > 30 | 21 |  |  |  |  |  |  | 
CCc1ccc(OCc2ccc(C(=O)O)cc2)cc1 | 28 | 35 |  | 11 | 7.4 |  | inactive |  |  |  | 
CC(C)(C)c1ccc(OCc2ccc(C(=O)O)cc2)cc1 | 7.8 | 8.9 | > 30 | 16 | 15 |  |  |  |  |  | Active
O=C(O)c1ccc(COc2ccccc2Cl)cc1 | 9.9 | 8.3 | > 30 | 58 | 31 |  |  |  |  |  | 
O=C(O)CCCc1ccc(COc2ccc3c(c2)CCC3)cc1 |  |  |  |  |  |  |  | Nd(Toxic) | Nd(Toxic) | Nd(Toxic) | 
O=C(O)c1ccc(COc2ccccc2F)cc1 | > 30 | > 30 | > 30 |  |  |  |  |  |  |  | 
